Each structure is given as a SMILES string. ≈ marks a conversion by molar mass, not a printed value. Some results are limits rather than exact numbers.

The nature of data set [1]: in vitro. The settings on record: mouse.
Description: Half life in mouse liver microsomes
The nature of another data set: physchem. Particulars: buffer, pH 7.4.
The next data set can be described thus: in vivo. The settings on record: CD1, mouse, po, 10 mg/kg.
A short description of data set [2]: Protein binding in mouse plasma. Particulars: read-out: PPB (converted). The class given is ADME, cell-free.
Data set [3] is described as follows: in vitro. Particulars: dog, MDCK-MDR1.
Description: Permeability across apical to basolateral side in MDCK cells expressing MDR1
A short description of data set [4]: Protein binding in human plasma. In kind it is ADME, cell-free. The settings on record: read-out: PPB (converted).

Description for physchem: Solubility of the compound at pH 7.4

For `CCOc1ccc(S(=O)(=O)CC)cc1-c1cn(C)c(=O)c2ccc(-c3cnn(C)c3)cc12`, in the data set “in vitro [1]” (liver microsomes), the half-life (usually the time needed for the level to fall by half in the phase considered) is over 3.33 h. The amount in solution in “physchem” (solubility) came to 12 µg/mL (≈ 26.6 µM). In the data set “in vivo”, the AUC(0-t) (as a rule, exposure summed from dosing to a finite time, without extrapolation to infinity) at 6 h came out at 11400 ng·h/mL. Moreover, the values for the fraction unbound in data set [2] and in data set [4] were 0.14 and 0.12, respectively. Further, the Papp A→B (as a rule, the apparent permeability from the apical to the basolateral side of a cell layer) in the data set “in vitro [3]” was 6 ×10⁻⁶ cm/s.
Take `CCNC(=O)C[C@@H]1N=C(c2ccc(Cl)cc2)c2cc(OC)ccc2-n2c(C)nnc21` [MOLIBRESIB]: in “in vitro [1]” (microsomes), the half-life turned out to be 1.58 h.

The values above are taken from ChEMBL document CHEMBL4219230, “Design, synthesis and biological evaluation of novel 4-phenylisoquinolinone BET bromodomain inhibitors” (Bioorg Med Chem Lett, 2018).
